Experimental data as given in PMC9798004 (Frontiers in Psychiatry, 2022).
Counter-ions that a name gives are not always drawn. No end group written: not given here.

Experiments:
Assay type in all cases: cell-based
CCR4 = molecular target: T1, CCR4 (Homo sapiens, UniProt P51679); experiment: PathHunter β-arrestin assay; settings: for EC80: control agonist
T1 sequence (P51679 1-360): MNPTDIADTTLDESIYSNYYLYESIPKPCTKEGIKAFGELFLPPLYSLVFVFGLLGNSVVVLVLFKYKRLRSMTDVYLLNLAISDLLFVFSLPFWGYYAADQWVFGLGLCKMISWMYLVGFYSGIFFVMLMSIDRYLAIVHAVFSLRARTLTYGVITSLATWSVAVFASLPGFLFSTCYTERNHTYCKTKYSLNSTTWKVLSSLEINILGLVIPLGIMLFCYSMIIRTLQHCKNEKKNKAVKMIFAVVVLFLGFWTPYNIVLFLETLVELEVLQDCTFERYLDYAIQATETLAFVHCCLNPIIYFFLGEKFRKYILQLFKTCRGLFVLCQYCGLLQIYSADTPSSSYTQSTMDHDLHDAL
Procedure: (§1) Follow up experiments were prioritized based on the difference between S/N and CoV. Targets with a >5-fold difference between S/N and CoV were investigated for their potential contribution to the AMB-FUBINACA toxidrome with 10-point concentration-response curves generated in technical replicate (range 1.5–30 μM) using the EC80 of the relevant agonist, where applicable in antagonist mode. Simultaneous agonist and antagonist curves were run in parallel to ensure reliability of the assay (see Supplementary Table 2), with both RC50 and signal to background aligning with historical averages, and Z' >0.5. RC50 was estimated using a four-parameter fit (CBIS Data Analysis Suite, ChemInnovation, San Diego, CA) on normalized data.

[1] = system: AtT20 cells wildtype (WT); experiment: LDH release cytotoxicity assay; settings: 30 μM
Procedure: AtT20 cells expressing either human CB1 (hCB1) or CB2 (hCB2) receptors or wildtype (WT) were grown to confluence in T75 cm^2 flasks in Dulbecco's modified eagle medium containing 10% fetal bovine serum, 100 U penicillin/streptomycin, and 80 μg/mL hygromicyin (Sigma-Aldrich/Merck; Castle Hill, NSW, Australia). Cells were plated in 96-well-microplates at 30,000 cells per well and allowed to adhere overnight in 5% CO2. The following morning, cells were treated with either vehicle (0.1% DMSO; negative control), 30 μM Δ^9-THC, or 30 μM AMB-FUBINACA. At 1 or 6 h, the amount of lactate dehydrogenase in the cell media was tested, and compared with positive control (lysed cells) as per manufacturer's instructions (Dojindo Molecular Technologies, Inc.; Rockville, MD, USA), with readings performed on a Clariostar Plus plate reader (BMG Labtech, Mornington, VIC, Australia). Experiments were performed in triplicate. In order to measure any accumulating LDH, media was not changed after initial incubation. Data is represented as means ± S.E.M. A two-way ANOVA with was performed on the data at each time point, with Tukey's multiple comparison test (α = 0.05). A p < 0.05 was considered statistically significant.

GPR119 = molecular target: T2, GPR119 (Homo sapiens, UniProt Q8TDV5); experiment: PathHunter β-arrestin assay; settings: for inhibition in single-point screen: antagonist mode, 30 μM
T2 construct: purchased Eurofins DiscoverX (PathHunter gpcrMAX)
T2 sequence (Q8TDV5 1-335): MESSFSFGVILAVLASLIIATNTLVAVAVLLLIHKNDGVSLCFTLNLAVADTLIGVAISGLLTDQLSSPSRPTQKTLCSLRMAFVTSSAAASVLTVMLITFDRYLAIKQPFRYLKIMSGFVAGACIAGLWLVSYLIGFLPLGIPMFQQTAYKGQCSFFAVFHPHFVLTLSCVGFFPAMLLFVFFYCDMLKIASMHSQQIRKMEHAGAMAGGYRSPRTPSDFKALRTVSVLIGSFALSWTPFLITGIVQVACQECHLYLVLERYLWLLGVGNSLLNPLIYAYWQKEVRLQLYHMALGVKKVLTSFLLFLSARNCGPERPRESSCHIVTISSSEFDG

168 GPCRs = experiment: gpcrMAX panel 30 μM single-point β-arrestin screen (agonist and antagonist mode); settings: antagonist mode
Procedure: Activity, or a “hit,” was defined as >30% in agonist mode, >35% in antagonist mode, or >50% in the orphan screen (agonist mode). Where these criteria were met, signal-to-noise (S/N) and coefficient of variation (CoV) were also calculated, defined as: […]
Agonist mode Antagonist modeS/N Compound mean/Baseline mean+(Baseline SD×3) EC80 mean/Compound-(Compound SD× 3)CoV Baseline mean/Compound mean-(Compound SD× 3) Compound mean/EC80 mean-(EC80 SD × 3)
Hits were verified to have S/N>1 and a CoV <1. Thresholds and subsequent validation were guided by Eurofins. Descriptive data (means ± S.E.M) was generated in Graphpad Prism (version 9.2.0, San Diego, CA).

P2RY6 = P2RY6 (Homo sapiens, UniProt Q15077); experiment: PathHunter β-arrestin assay
Chain of P2RY6 (Q15077 whole entry): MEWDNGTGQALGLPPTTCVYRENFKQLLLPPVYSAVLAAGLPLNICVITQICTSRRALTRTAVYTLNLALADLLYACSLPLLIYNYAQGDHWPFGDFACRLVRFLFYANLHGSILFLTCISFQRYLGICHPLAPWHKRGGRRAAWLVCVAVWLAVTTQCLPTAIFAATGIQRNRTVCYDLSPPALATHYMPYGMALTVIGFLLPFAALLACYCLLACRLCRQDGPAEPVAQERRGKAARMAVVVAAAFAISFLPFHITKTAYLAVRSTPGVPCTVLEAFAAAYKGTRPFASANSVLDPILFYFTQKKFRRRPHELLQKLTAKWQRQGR
Procedure: as §1

HCRTR1 = molecular target: T3, HCRTR1 (Homo sapiens, UniProt O43613); experiment: PathHunter β-arrestin assay; settings: control agonist
T3 sequence (O43613 1-425): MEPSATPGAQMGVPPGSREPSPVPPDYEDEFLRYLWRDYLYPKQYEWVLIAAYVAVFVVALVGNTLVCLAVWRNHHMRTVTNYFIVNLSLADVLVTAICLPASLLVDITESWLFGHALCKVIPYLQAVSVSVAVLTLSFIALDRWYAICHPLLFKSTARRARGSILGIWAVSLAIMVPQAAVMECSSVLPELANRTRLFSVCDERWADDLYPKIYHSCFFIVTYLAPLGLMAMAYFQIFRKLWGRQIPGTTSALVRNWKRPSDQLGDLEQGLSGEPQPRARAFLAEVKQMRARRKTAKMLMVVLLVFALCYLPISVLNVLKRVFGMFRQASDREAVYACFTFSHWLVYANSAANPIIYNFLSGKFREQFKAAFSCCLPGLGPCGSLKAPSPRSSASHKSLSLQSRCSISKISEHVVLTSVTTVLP
Procedure: as §1

GPR35 = GPR35 (Homo sapiens, UniProt Q9HC97); experiment: PathHunter β-arrestin assay; settings: control agonist
Chain of GPR35 (Q9HC97 whole entry): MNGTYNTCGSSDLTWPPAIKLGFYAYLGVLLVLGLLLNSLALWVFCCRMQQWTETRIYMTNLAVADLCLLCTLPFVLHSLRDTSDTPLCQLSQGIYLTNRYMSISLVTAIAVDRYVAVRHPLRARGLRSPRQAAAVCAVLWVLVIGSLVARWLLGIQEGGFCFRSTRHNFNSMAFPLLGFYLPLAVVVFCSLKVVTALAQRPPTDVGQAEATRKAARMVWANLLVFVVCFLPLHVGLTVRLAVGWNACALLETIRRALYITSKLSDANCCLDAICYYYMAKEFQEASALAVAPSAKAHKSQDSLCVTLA

ADRA2C = molecular target: T4, ADRA2C (Homo sapiens, UniProt P18825); experiment: PathHunter β-arrestin assay; settings: control agonist
T4 sequence (P18825 1-462): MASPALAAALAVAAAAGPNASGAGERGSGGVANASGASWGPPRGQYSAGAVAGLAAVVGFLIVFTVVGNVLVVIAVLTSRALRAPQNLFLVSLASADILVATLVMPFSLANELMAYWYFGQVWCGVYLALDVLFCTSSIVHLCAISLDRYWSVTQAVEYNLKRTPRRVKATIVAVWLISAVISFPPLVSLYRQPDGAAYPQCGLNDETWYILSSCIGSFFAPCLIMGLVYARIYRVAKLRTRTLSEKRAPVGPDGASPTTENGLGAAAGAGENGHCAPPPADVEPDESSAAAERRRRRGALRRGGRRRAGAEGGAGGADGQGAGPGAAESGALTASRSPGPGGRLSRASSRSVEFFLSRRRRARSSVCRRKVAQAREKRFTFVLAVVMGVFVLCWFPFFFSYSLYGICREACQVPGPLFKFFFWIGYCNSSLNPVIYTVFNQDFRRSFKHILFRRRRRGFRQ

PTGER4 = PTGER4 (Homo sapiens, UniProt P35408); experiment: PathHunter β-arrestin assay; settings: follow-up assays, control antagonist
Chain of PTGER4 (P35408 whole entry): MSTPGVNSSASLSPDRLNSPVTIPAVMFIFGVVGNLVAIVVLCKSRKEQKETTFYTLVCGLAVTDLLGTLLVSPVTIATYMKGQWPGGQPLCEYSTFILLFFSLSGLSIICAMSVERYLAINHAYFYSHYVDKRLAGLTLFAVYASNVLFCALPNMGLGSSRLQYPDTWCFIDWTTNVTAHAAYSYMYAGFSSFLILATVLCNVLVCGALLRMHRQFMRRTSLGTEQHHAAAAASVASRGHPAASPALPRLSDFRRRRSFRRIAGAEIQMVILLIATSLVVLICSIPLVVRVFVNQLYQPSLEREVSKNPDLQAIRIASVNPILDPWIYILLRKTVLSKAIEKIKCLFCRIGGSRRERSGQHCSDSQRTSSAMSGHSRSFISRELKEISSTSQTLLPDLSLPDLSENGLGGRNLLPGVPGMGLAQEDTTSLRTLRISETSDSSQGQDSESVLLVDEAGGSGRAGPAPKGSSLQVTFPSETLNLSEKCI
Procedure: as §1

CCR6 = molecular target: T5, CCR6 (Homo sapiens, UniProt P51684); experiment: PathHunter β-arrestin assay; settings: control agonist
T5 construct: purchased Eurofins DiscoverX (PathHunter gpcrMAX)
T5 sequence (P51684 1-374): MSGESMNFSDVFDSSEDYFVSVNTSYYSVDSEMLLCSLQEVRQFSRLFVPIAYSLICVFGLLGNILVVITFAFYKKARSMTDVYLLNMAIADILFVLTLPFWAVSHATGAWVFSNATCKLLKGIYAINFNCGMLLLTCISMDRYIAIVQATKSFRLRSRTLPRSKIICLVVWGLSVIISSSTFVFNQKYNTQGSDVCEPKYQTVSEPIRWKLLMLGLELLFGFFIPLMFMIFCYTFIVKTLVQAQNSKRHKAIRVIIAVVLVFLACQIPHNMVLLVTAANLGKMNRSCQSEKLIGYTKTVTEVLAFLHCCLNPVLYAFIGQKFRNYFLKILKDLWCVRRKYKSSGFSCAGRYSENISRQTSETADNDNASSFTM
Procedure: as §1

CCR8 = CCR8 (Homo sapiens, UniProt P51685); experiment: PathHunter β-arrestin assay; settings: control agonist
Procedure: as §1

CCR9 = molecular target: T6, CCR9 (Homo sapiens, UniProt P51686); experiment: PathHunter β-arrestin assay; settings: control agonist
T6 construct: purchased Eurofins DiscoverX (PathHunter gpcrMAX)
T6 sequence (P51686 1-369): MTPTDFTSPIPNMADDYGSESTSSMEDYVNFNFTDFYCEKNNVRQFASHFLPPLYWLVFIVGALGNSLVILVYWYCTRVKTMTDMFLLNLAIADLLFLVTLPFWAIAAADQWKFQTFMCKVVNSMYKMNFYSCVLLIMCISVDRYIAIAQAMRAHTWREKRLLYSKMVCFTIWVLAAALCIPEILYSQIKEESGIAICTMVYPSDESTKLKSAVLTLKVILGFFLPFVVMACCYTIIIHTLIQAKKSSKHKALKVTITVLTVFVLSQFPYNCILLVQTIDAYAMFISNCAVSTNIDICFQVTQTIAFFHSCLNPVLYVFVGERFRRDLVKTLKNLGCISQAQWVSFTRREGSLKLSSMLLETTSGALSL
Procedure: as §1

[2] = follow-up assays, control antagonist
[3] = follow-up concentration-response assays

With `COc1cc2nc(N3CCC(N4CCCCC4)CC3)nc(NC3CCCCCC3)c2cc1OC` [C 021 dihydrochloride] the IC50 (CCR4; [2]) was 2.58 nM.

With `CCCCCc1cc(O)c2c(c1)OC(C)(C)[C@@H]1CCC(C)=C[C@@H]21` [THC, Δ^9-tetrahydrocannabinol] the “LDH in cell media, normalized to total LDH” value ([1]; 1 h) was 22.40 ± 3.44% and the “LDH increase compared with vehicle” value ([1]; 6 h) was “no effect was observed”.

In the case of `CCCCCn1nc(C(=O)NC(C)(C)c2ccccc2)c2ccccc21` [CUMYL-PINACA], the “inhibition in single-point screen” value (GPR119) is reported as “inhibited to the greatest extent of any antagonist mode target” and the “number of off-targets inhibited (>35%)” value (168 GPCRs) is reported as “inhibited the greatest number of targets”.

With `O=c1ccn([C@@H]2O[C@H](COP(=O)(O)OP(=O)(O)O)[C@@H](O)[C@H]2O)c(=O)[nH]1` [UDP] the EC80 (P2RY6; follow-up concentration-response assays, control agonist) was 74.88 nM.

In the case of “Orexin A (QPLPDCCRQKTCSCRLYELLHGAGNHAAGILTL; not fully specified (residue 1, C-terminus, bridges); cysteine pairing not given here; UniProt O43612 34-66, looked up) [control agonist]”, the EC80 (HCRTR1; [3]) is reported as 10.62 nM and the EC80 (HCRTR1; screen, CHO, 37C, 2HR) is reported as 10.6 nM.

With `S=C=Nc1cccc(NC(=S)NCCCCNC(=S)Nc2cccc(N=C=S)c2)c1` [MRS 2578] the IC50 (P2RY6; [2]) was 2520 nM.

In the case of `CCCCCn1cc(C(=O)Oc2cccc3cccnc23)c2ccccc21` [PB-22], the “number of off-targets inhibited (>35%)” value (168 GPCRs) is reported as 20.

`CCCOc1ccccc1-c1nc2nn[nH]c2c(=O)[nH]1` [Zaprinast] gave an EC80 (GPR35; [3]) of 4048 nM and an EC80 (GPR35; screen, CHO, 37C, 2HR) of 12100 nM.

In the case of `COC(=O)C(NC(=O)c1nn(CCCCF)c2ccccc12)C(C)(C)C` (centres unmarked) [4F-MDMB-BUTINACA], the “number of off-targets inhibited (>35%)” value (168 GPCRs) is reported as 16.

`Brc1c(NC2=NCCN2)ccc2nccnc12` [UK 14,304] showed an EC80 (ADRA2C; [3]) of 123.1 nM and an EC80 (ADRA2C; screen, CHO, RT, 2HR) of 111 nM.

Molecule `CCCCc1nn(-c2ccccc2C(F)(F)F)c(=O)n1Cc1ccc(-c2ccccc2S(=O)(=O)NC(=O)c2sccc2C)cc1` [L 161,982] has an IC50 (PTGER4) of 15.9 nM.

Work on CCL20: control agonist yielded an EC80 (CCR6; [3]) of 44.68 nM and an EC80 (CCR6; screen, CHO, 37C, 2HR) of 44.7 nM.

For `CCCCCn1nc(C(=O)NC23CC4CC(CC(C4)C2)C3)c2ccccc21` [AKB-48], the “inhibition in single-point screen” value (GPR119) was “inhibited to the greatest extent of any antagonist mode target”.

For `CCCCCCCC/C=C\CCCCCCCC(=O)NCCO` [Oleoyl Ethanolamide], the EC80 (GPR119; screen, control agonist, HEK, 37C, 2HR) was 4310 nM.

B1: CCL22: control agonist (protein, UniProt O00626 25-93, looked up)
C-C motif chemokine 22: GPYGANMEDSVCCRDYVRYRLPLRVVKHFYWTSDSCPRPGVVLLTFRDKEICADPRVPWVKMILNKLSQ
B1 gave an EC80 (CCR4; [3]) of 19.61 nM and an EC80 (CCR4; screen, CHO, 37C, 2HR) of 6.54 nM.

B2: CCL1: control agonist (protein, UniProt P22362 24-96, looked up)
C-C motif chemokine 1: KSMQVPFSRCCFSFAEQEIPLRAILCYRNTSSICSNEGLIFKLKRGKEACALDTVGWVQRHRKMLRHCPSKRK
Work on B2 yielded an EC80 (CCR8; [3]) of 157.4 nM and an EC80 (CCR8; screen, CHO, 37C, 2HR) of 157 nM.

B3: CCL25: control agonist (protein, UniProt O15444 24-150, looked up)
C-C motif chemokine 25: QGVFEDCCLAYHYPIGWAVLRRAWTYRIQEVSGSCNLPAAIFYLPKRHRKVCGNPKSREVQRAMKLLDARNKVFAKLHHNTQTFQAGPHAVKKLSSGNSKLSSSKFSNPISSSKRNVSLLISANSGL
Molecule B3 has an EC80 (CCR9; [3]) of 350 nM and an EC80 (CCR9; screen, CHO, 37C, 2HR) of 370 nM.
